Experimental data taken from paper PMC10660337, “Mutate and Conjugate: A Method to Enable Rapid In-Cell Target Validation” (ACS Chemical Biology, 2023).

Columns and labels:
[1] = system: T1, BRD4(1)^WT transiently expressed in HEK293T cells; assay: In-cell labeling by clickable probes, in-gel fluorescence; type: cell-based, human; details: 10 μM probe, 1 h
T1 construct: the first bromodomain of BRD4 [BRD4(1)]; StrepII; expressed in transfected cells; host or cells: HEK293T
Protocol: To evaluate proteome-wide selectivity of the clickable probes, HEK293T cells transiently expressing BRD4(1)^L94C or BRD4(1)^WT were incubated with 10 μM of probes 28–30 and 42 for 1 h before the cells were lysed and the CuAAC reaction with TAMRA-PEG3-azide was conducted (Figure 7A). […]
(§1) reaction mix was taken and 8 µL of Lamelli buffer added, and the samples denatured by heating at 95 °C for 10 min. Samples were separated by gel electrophoresis on NuPAGE™ 4–12%, Bis-Tris precast polyacrylamide gels (Thermofisher). Following electrophoresis, gels were stained for 15 min with InstantBlueTM Coomasie® stain (Abcam), destained, and imaged using Bio-rad molecular imager.
(§2) Bio-rad Image Lab 6.1 was used to process the data.
(§3) In-cell target engagement
(§4) In-cell labeling by clickable probes
(§5) Transfected HEK293T cells at ~90% confluency were incubated for 1 h with a DMSO control (0.5% DMSO final concentration) or a click probe (10 µM, 0.5% DMSO final concentration) diluted in Opti- […]
Cells were then harvested and lysed using the previously described protocol above. The resulting cell lysates were diluted to 2 mg/mL using the previously described protocol above.
Cell lysates (50 µL) were then incubated with TAMRA-PEG3-Azide (200 µM), TCEP·HCl (2 mM), TBTA (200 µM), and CuSO4 (2 mM), for 1 h at rt in the dark. Samples were then prepared and separated by gel electrophoresis using the previously described protocol above.
Gels were imaged for fluorescence using Bio-rad molecular imager and then stained for 15 min with InstantBlueTM Coomasie® stain (Abcam), destained, and imaged using Bio-rad molecular imager.
Typically, the very bottom of the gel was removed prior to imaging due to residual, unreacted, TAMRA-PEG3-Azide, which would cause oversaturation and poor image quality. […]
MEM media. Cells were then harvested and lysed using the previously described protocol above. […]

[2] = target: T2, BRD4(1)^WT (Homo sapiens, UniProt O60885); assay: Fluorescent labeling of purified protein (CuAAC with TAMRA-PEG3-azide, in-gel fluorescence); type: binding; details: 50 μM probe, 10 μM protein, 4 h, 37 °C, then CuAAC 1 h
T2 construct: Characterization of His6-BRD4(1)WT; made in house; host or cells: E. coli BL21 (DE3)
Protocol: When 28, 29, 30, and 42 were incubated with either purified BRD4(1)^L94C or BRD4(1)^WT and subjected to a copper(I)-catalyzed alkyne–azide click reaction (CuAAC) reaction with the fluorescent TAMRA-PEG3-azide dye, all clickable probes labeled the mutant protein and could be visualized using fluorescence imaging of a gel (Figure 6).
Figure 6 Clickable probes 28, 29, 30, and 42 covalently label BRD4(1)^L94C and undergo a subsequent CuAAC reaction with TAMRA-PEG3 azide to fluorescently label the protein, as shown by in-gel fluorescence imaging. Compounds 28, 29, 30, 41, and 42 (50 μM) were incubated with purified BRD4(1)^L94C or BRD4(1)^WT (10 μM) for 4 h at 37 °C, followed by CuAAC reaction with TAMRA-PEG3 azide for 1 h and separation of components by SDS-PAGE. For all compounds other than 30, only labeling of BRD4(1)^L94C was observed.
50 mM DMSO stock solutions of the compounds were serially diluted, and dispensed into wells (5 μL).
The protein-peptide mixes (7 μL) for each combination were prepared following the specified final assay concentration (Table S19), and dispensed into wells. […]
Assays were performed in 1.5 mL Eppendorf tubes at room temperature, in the dark, and gently shaken, unless otherwise stated. […] Data was analysed and processed using MassLynx. […]
Gels were imaged for fluorescence using Bio-rad molecular imager and then stained for 15 min with […]

[3] = system: BRD4(1,2)^L94C transiently expressed in HEK293T cells; assay: In-cell labeling of tandem bromodomain; type: cell-based, human
Protocol: as §1, §2, §3, §4, §5
(§6) Cells were then harvested and lysed using the previously described protocol above. The resulting cell lysates were diluted to 2 mg/mL using the previously described protocol above. […]
(§7) Gels were imaged for fluorescence using Bio-rad molecular imager and then stained for 15 min with InstantBlueTM Coomasie® stain (Abcam), destained, and imaged using Bio-rad molecular imager. […]
(§8) Transfected HEK293T cells at ~90% confluency were incubated for 30 min with a DMSO control or varying concentrations of OXFBD04 diluted in Opti-MEM media. […] Cells were then harvested, processed, and analysed using the previously described protocol above. […]

[4] = target: BRD4(1,2)^WT transiently expressed in HEK293T cells (Homo sapiens, UniProt O60885); assay: In-cell labeling of tandem bromodomain; type: cell-based
Protocol: as §1, §2, §3, §4, §5, §6, §7, §8

| Compound | In-cell labeling of BRD4(1)^WT (fluorescent band ∼49 kDa) [1] | Labeling of purified BRD4(1)^WT, in-gel fluorescence [2] | In-cell labeling of BRD4(1,2)^L94C (fluorescent band ∼80 kDa) [3] | In-cell covalent engagement with BRD4(1,2)^WT [4] |
| --- | --- | --- | --- | --- |
| C#CCOc1ccc(-c2c(C)noc2NC(=O)C=C)cc1 [Compound 30] | not visible | low level | – | – |
| C#CCOc1cc(NC(=O)C=C)ccc1N1CCCC1=O [Compound 42] | – | – | selectively label | no covalent engagement |
